We go through 9 molecules from patent US20110172200A1, “USE OF INHIBITOR OF BETA-LACTAMASES AND ITS COMBINATION WITH BETA-LACTAM ANTIBIOTICS” (priority 2008, published 2011).

Data set [1] has as its system E. cloacae B274 (AmpC). Put plainly: Broth microdilution susceptibility assay (MIC), strain S1. As to conditions: CAMHB, 35° C., 24 h; for MIC: Enterobacter cloacae. Format: cell-based. How it is done:
(§1) Representative inhibitor of beta-lactamases of formula (I) was evaluated against the bacterial strains producing serine-based class A beta-lactamases including CTX-M, TEM-type, SHV-type extended spectrum beta-lactamases (ESBL) and class C betalactamases (AmpC) as noted in Table 2.
(§2) Bacterial suspensions with a turbidity equivalent to that of a 0.5 McFarland standard were prepared by suspending a tiny portion of one colony from blood agar plates in 2 mL of sterile saline. Suspensions were further diluted with cation adjusted Mueller Hinton Broth (CAMHB) to obtain a final inoculum of 5×10^5 CFU/mL.
(§3) The in vitro activities of the antibiotics were determined by the broth microdilution method as recommended by CLSI guidelines.
(§4) MIC experiments were performed in duplicate in 96-well microtiter plates using CAMHB. Serial twofold dilutions of each antibiotic either alone or in combination with constant concentration ratio of LK-176 (2:1) and (10:1) were prepared in CAMHB. The bacterial suspension with final inoculum […] was transferred to the test medium containing the antibacterial substances. In each well of microtiter plate 50 μL of bacterial inoculum and 50 μL of antibiotic dilutions were combined. Each plate included 4 wells with no bacterial inoculum (negative control) and 4 wells with no test compound and no antibiotic (positive control). The plates were incubated at 35° C. for 24 h. Purity check and colony counts on each inoculum suspension was performed to ensure that the final inoculum concentration routinely obtained closely approximates 5×10^5 CFU/mL.

The test system of data set [2] is E. cloacae B275 (AmpC). Nature of the data set: Broth microdilution susceptibility assay (MIC), strain S2. The format is cell-based. The note with it: duplicate, CAMHB, 35° C., 24 h. How it is done: as §1, §2, §3, §4
The subject of data set [3] is E. cloacae 4013. Nature of the data set: Broth microdilution susceptibility assay (MIC), strain S3. Format: cell-based. As to conditions: duplicate, CAMHB, 35° C.; for MIC S3: 24 h; for MIC: Enterobacter cloacae, 4013, 24 h. How it is done:
as §1, §2, §3, §4
In general terms: Dilution methods test growth across graded concentrations, often in twofold steps.

The test system of data set [4] is E. caerogenes ATCC 29751 (class II). Put plainly: Broth microdilution susceptibility assay (MIC), strain S4. Format: cell-based. As to conditions: duplicate, CAMHB, 35° C., 24 h. The method, then: as §1, §2, §3, §4
For data set [5], the system named is E. faecalis ATCC 29212. Put plainly: Broth microdilution susceptibility assay (MIC), strain S5. As to conditions: duplicate, CAMHB, 35° C.; for MIC S5: 24 h; for MIC: Enterococcus faecalis, ATCC29212, 24 h. The format is cell-based. The method, then: as §1, §2, §3, §4
Data set [6] relates to K. pneumoniae DSA 1461. Nature of the data set: Broth microdilution susceptibility assay (MIC), strain S6. The note with it: Table 2 lower part, duplicate, CAMHB, 35° C., 24 h. Format: cell-based. The method, then: as §1, §2, §3, §4
In data set [7] the test system is K. pneumoniae ATCC 700603 (SHV-18). Nature of the data set: Broth microdilution susceptibility assay (MIC), strain S7. Format: cell-based. As to conditions: CAMHB, 35° C.; for MIC S7: 24 h; for MIC: Klebsiella pneumoniae, ATCC700603, 24 h. How it is done:
as §1, §2, §3, §4

The test system of data set [8] is C. freundii B271 (SHV-5). Nature of the data set: Broth microdilution susceptibility assay (MIC), strain S8. As to conditions: CAMHB, 35° C., 24 h; for MIC: Citrobacter freundii. Format: cell-based. How it is done:
as §1, §2, §3, §4

In data set [9] the test system is C. freundii B318 (CTX-M). Nature of the data set: Broth microdilution susceptibility assay (MIC), strain S9. The format is cell-based. The method, then:
as §1, §2, §3, §4

Data set [10] relates to AmpC. The note with it: cited from earlier work.
For data set [11], the target named is class A beta-lactamase TEM-1 (Escherichia coli, UniProt P62593). Nature of the data set: IC50 determination with nitrocefin as reporter substrate, TEM-1. The format is biochemical, E. coli. The note with it: 30 min pre-incubation at 37° C., phosphate buffer pH 7.0, nitrocefin. How it is done:
(§5) The IC50 value represents the concentration of inhibitor required to effect a 50% loss of activity of free enzyme. A standard test for the production of beta-lactamase involves use of the chromogenic cephalosporin, nitrocefin.
(§6) Homogeneously purified class A beta-lactamases TEM-1 and SHV-1 from E. coli and class C enzyme P99 from Enterobacter cloaca were employed in the assay.
(§7) All the enzymes and compounds were dissolved in 50 mM phosphate buffer pH 7.0 and all further dilutions were done with the same buffer solution. Enzyme and compound dilutions were pre-incubated for 30 min at 37° C. and in a final volume of 500 μl. Than 10 μl of 5 mM nitrocefin (reporter substrate) was added to the solution and the absorbance at 482 nm was measured during 2 to 5 minutes. The initial rate was calculated for all the different solutions. The […] values were determined as the inhibitor concentration that gave an initial hydrolysis rate of nitrocefin equal to 50% of the hydrolysis rate of nitrocefin in absence of inhibitor.
(§8) Representative compounds of formula (I) were evaluated as inhibitors of beta-lactamases of TEM-1 and SHV-1 (class A, penicillinase) from E. coli and P-99 (class C, cephalosporinase) from Enterobacter cloacae, by relative IC50 analysis using a procedure similar to that described above.

For data set [12], the target named is class A beta-lactamase SHV-1 (Escherichia coli, UniProt P0AD63). Put plainly: IC50 determination with nitrocefin as reporter substrate, SHV-1. The format is biochemical, E. coli. The method, then: as §5, §6, §7, §8
Data set [13] concerns the target class C beta-lactamase P99 (AmpC) (Enterobacter cloacae, UniProt P05364). Put plainly: IC50 determination with nitrocefin as reporter substrate, P99. The format is biochemical. How it is done: as §5, §6, §7, §8
The subject of data set [14] is strains S1-S9. Put plainly: Broth microdilution susceptibility assay (MIC), all strains. Format: cell-based. The note with it: strains deemed as resistant to LK-176 alone. The method, then:
as §1, §2, §3
as §4, with “The plates were incubated at 35° C. for 24 h. Purity check and colony counts on each inoculum suspension was performed to ensure that the final inoculum concentration routinely obtained closely approximates 5×10^5 CFU/mL.” left out

The conditions of data set [15]: single and repeated doses, i.v. and oral, healthy subjects; cited from earlier work.
[16] abbreviates: Table 2 upper part, duplicate (two lines per substance).
[17] abbreviates: Table 2 lower part, duplicate, CAMHB, 35° C., 24 h.

Where “and” joins values, the source holds several entries; their conditions need not be identical. Equal entries are not always repeated. Where two headings read alike, the source gives them in different places.

class A beta-lactamase TEM-1, sequence (P62593 24-286 limits assumed): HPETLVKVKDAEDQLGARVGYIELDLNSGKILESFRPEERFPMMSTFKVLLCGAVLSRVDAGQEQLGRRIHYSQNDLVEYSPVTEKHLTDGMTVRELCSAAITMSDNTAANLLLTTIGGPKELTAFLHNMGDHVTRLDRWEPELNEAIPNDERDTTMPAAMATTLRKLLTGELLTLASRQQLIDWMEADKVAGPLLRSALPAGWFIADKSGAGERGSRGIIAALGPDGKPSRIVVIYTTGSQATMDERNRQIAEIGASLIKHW
class A beta-lactamase SHV-1, sequence (P0AD63 22-286): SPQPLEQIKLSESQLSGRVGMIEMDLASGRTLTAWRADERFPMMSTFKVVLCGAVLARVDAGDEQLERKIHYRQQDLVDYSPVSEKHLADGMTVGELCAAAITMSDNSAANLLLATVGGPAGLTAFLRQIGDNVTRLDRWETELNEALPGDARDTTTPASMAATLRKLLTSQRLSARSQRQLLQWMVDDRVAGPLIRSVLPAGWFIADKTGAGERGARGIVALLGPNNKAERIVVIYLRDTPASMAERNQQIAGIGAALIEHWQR
class C beta-lactamase P99 (AmpC), sequence (P05364 21-381): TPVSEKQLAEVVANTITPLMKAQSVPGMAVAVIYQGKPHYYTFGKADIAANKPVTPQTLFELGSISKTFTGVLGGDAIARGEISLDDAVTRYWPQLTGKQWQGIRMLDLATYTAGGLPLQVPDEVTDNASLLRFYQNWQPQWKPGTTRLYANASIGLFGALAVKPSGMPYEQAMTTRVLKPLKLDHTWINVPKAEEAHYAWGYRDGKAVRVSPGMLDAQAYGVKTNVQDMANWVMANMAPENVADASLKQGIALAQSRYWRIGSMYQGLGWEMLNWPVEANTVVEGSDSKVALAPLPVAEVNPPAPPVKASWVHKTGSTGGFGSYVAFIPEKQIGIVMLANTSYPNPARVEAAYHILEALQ

As to `CO/N=C(\C(=O)N[C@@H]1C(=O)N2C(C(=O)O)=C(COC(C)=O)CS[C@H]12)c1csc(N)n1` [Cefotaxime (OTA), cefotaxime], the “MIC S1” value in data set [1] (setting [16]) worked out at 128 µg/mL. Further, the “MIC S2” value in data set [2] (Table 2 upper part) came out at 128 µg/mL. In [3] (Table 2 upper part), the “MIC S3” value worked out at 64 µg/mL. For the same molecule, the “MIC S4” value in data set [4] (Table 2 upper part) was 8 µg/mL. In data set [5] (Table 2 upper part), the “MIC S5” value is 16 µg/mL.

For `CO/N=C(\C(=O)N[C@@H]1C(=O)N2C(C(=O)[O-])=C(C[N+]3(C)CCCC3)CS[C@H]12)c1csc(N)n1` [Cefepime (EPI), cefepime], in data set [5] (Table 2 upper part), the “MIC S5” value is 32 µg/mL and 16 µg/mL.

Consider `CCN1CCN(C(=O)N[C@@H](C(=O)N[C@@H]2C(=O)N3[C@@H]2SC(C)(C)[C@@H]3C(=O)O)c2ccccc2)C(=O)C1=O` [Piperacillin (PIP), piperacillin], for which the “MIC S1” value in data set [1] (Table 2 lower part, duplicate) is over 128 µg/mL. The “MIC S2” value in data set [2] (Table 2 lower part) was over 128 µg/mL. The “MIC S3” value in data set [3] (Table 2 lower part) is over 128 µg/mL. Moreover, the “MIC S4” value in [4] (Table 2 lower part) is 32 µg/mL. Further, in [5] (Table 2 lower part), the “MIC S5” value is 16 µg/mL. Moreover, in [6], the “MIC S6” value was over 128 µg/mL. Further, in data set [7] (Table 2 lower part, duplicate), the “MIC S7” value was over 128 µg/mL. Moreover, the “MIC S8” value in [8] (Table 2 lower part, duplicate) was over 128 µg/mL. Also, in data set [9] (setting [17]), the “MIC S9” value was 128 µg/mL.

Turning to `CC(C)(O/N=C(\C(=O)N[C@@H]1C(=O)N2C(C(=O)[O-])=C(C[n+]3ccccc3)CS[C@H]12)c1csc(N)n1)C(=O)O` [Ceftazidime (TAZ), ceftazidime], in data set [1] (setting [16]), the “MIC S1” value was over 128 µg/mL. Also, in data set [2] (Table 2 upper part), the “MIC S2” value is over 128 µg/mL. For the same molecule, the “MIC S3” value in [3] (Table 2 upper part) amounted to 128 µg/mL. Also, the “MIC S4” value in data set [4] (Table 2 upper part) amounted to 16 µg/mL. Also, the “MIC S5” value in data set [5] (Table 2 upper part) turned out to be 16 µg/mL.

In the case of `C=CC1=C(C(=O)O)N2C(=O)[C@@H](NC(=O)/C(=N\OCC(=O)O)c3csc(N)n3)[C@H]2SC1` [cefixime], the “kcat values of AmpC” value in [10] was 10 s⁻¹.

In general, IC50 refers to the concentration needed to halve the response being measured. A high value points to weaker potency in that assay. The term MIC denotes the lowest concentration that inhibits growth of the organism. In the case of `CO[C@H]1CCC[C@H]2C1=C(C(=O)O)N1C(=O)C(C(C)O)[C@@H]21` (stereo partly drawn) [LK-176, (4S,8S,9R)-4-methoxy-10-(1-Hydroxyethyl)-11-oxo-1-azatricyclo-[7.2.0.0 (3,8)]undec-2-ene-2-carboxylic acid], the values for the IC50 in [11], in [12] and in data set [13] were 15 nM, 200 nM and 0.15 nM, respectively. Also, the MIC in data set [1] (Table 2 lower part, duplicate) amounted to 32 µg/mL; in data set [1] (setting [16]) it was 32 µg/mL; in data set [2] (Enterobacter cloacae, Table 2 lower part), 64 µg/mL; in [3] (Table 2 lower part), 64 µg/mL; in data set [3] (Table 2 upper part), 64 µg/mL; in data set [4] (Table 2 lower part) it was 16 µg/mL. Moreover, the minimum inhibitory concentration (MIC) is 32 µg/mL in [4] (Table 2 upper part); 64 µg/mL in data set [5] (Table 2 lower part); 32 µg/mL in [5] (Table 2 upper part); 16 µg/mL in [6] (Klebsiella pneumoniae, DSA1461); over 128 µg/mL in data set [7] (Table 2 lower part, duplicate); 16 µg/mL in data set [7] (Table 2 upper part, column 6, duplicate). Besides, the MIC in data set [8] (Table 2 lower part, duplicate) amounted to 64 µg/mL; in data set [8] (Table 2 upper part, column 7, duplicate), 128 µg/mL. Also, the “MIC S1” value in data set [1] (Table 2 lower part, duplicate) was found to be 16 µg/mL. Also, the “MIC S3” value in data set [3] (Table 2 lower part) turned out to be 32 µg/mL. Besides, in data set [7] (Table 2 lower part, duplicate), the “MIC S7” value is 128 µg/mL. The “MIC S9” value in data set [9] (setting [17]) came to 32 µg/mL. Moreover, in [14], the “MIC values of LK-176 alone, all strains S1-S9” value is recorded as “above 16 mg/L”.

Take `CO[C@H]1CCC[C@H]2C1=C(C(=O)O)N1C(=O)[C@H]([C@@H](C)O)[C@@H]21` [sanfetrinem]: in data set [10], the “kcat values of AmpC” value was 0.00033 s⁻¹. The Safety and tolerability entry in [15] is reported as “good tolerability”.

Regarding `CO/N=C(\C(=O)N[C@@H]1C(=O)N2C(C(=O)O)=C(COC(N)=O)CS[C@H]12)c1ccco1` [Cefuroxime (URO), cefuroxime], the “MIC S1” value in [1] (Table 2 lower part, duplicate) is over 128 µg/mL. In data set [2] (Table 2 lower part), the “MIC S2” value was over 128 µg/mL. In [3] (Table 2 lower part), the “MIC S3” value is over 128 µg/mL. For the same molecule, the “MIC S4” value in [4] (Table 2 lower part) came out at 128 µg/mL. Besides, the “MIC S5” value in [5] (Table 2 lower part) was 64 µg/mL and 32 µg/mL. Besides, in data set [6], the “MIC S6” value is over 128 µg/mL. Moreover, the “MIC S7” value in data set [7] (Table 2 lower part, duplicate) is 64 µg/mL and 32 µg/mL. Also, the “MIC S8” value in data set [8] (Table 2 lower part, duplicate) was found to be 128 µg/mL. Moreover, the “MIC S9” value in data set [9] is 128 µg/mL.

As to `CO/N=C(\C(=O)N[C@@H]1C(=O)N2C(C(=O)O)=C(CSc3nc(=O)c(O)nn3C)CS[C@H]12)c1csc(N)n1` [Ceftriaxone (TRI), ceftriaxone], the “MIC S1” value in data set [1] (Table 2 lower part, duplicate) was found to be 128 µg/mL. For the same molecule, the “MIC S2” value in [2] (Table 2 lower part) is 64 µg/mL. For the same molecule, the “MIC S3” value in data set [3] (Table 2 lower part) is 32 µg/mL. In addition, the “MIC S4” value in data set [4] (Table 2 lower part) came out at 8 µg/mL. Also, the “MIC S5” value in [5] (Table 2 lower part) is over 128 µg/mL. Moreover, the “MIC S6” value in data set [6] was >128 µg/mL and 128 µg/mL. Also, in data set [7] (Table 2 lower part, duplicate), the “MIC S7” value came out at 8 µg/mL. Further, in data set [8] (Table 2 lower part, duplicate), the “MIC S8” value amounted to 32 µg/mL.
